Laboratory results: patent publication US6818215B2, “Antibodies to senescent cell-derived inhibiters of DNA synthesis” (priority 1991, dated 2004)

Legend:
c-fos promoter = test: CAT reporter transcription assay, fos-CAT; assay type: cell-based; settings: SDI-1 2.0 μg
Method: (§1) The effect of the human SDI-1 on transcription driven by two E2F-responsive promoters was determined. Proliferating A31 cells were transfected with an SDI-1 expression vector in which the SDI-1 cDNA was driven by the strong constitutive cytomegalovirus early promoter (CMV) together with a reporter vector in which the chloramphenicol acetyltransferase (CAT) gene was driven by either the hamster dihydrofolate reductase (DHFR) promoter or the human cdc2 promoter (cdc2-CAT). A31 cells are Balb/c murine 3T3 fibroblasts whose origin and growth properties have been described (Lu, K. et al., Molec. Cell. Biol. 9:3411-3417 (1989); Dimri, G. P et al., J. Biol. Chem. 269:16180-16186 (1994), herein incorporated by reference). Cells were transfected with 2 μg of expression vectors, reporters vectors (for transactivation) and the CMV-β-gal identification/normalization vector using Lipofectamine (Gibco-BRL), as described by Dimri, G. P et al. (J. Biol. Chem. 269:16180-16186 (1994), herein incorporated by reference), The vector backbone was added to the mixture as needed to equalize the amount of transfected DNA. Seventy-two hours later, the cells were lysed and assayed for chloramphenicol acetyl transferase (CAT) and β-galactosidase activity. Both DHFR and cdc2 were expressed by proliferating cells, largely due to E2F-mediated transcription that is dependent on E2F binding sites in the 5′ regulatory regions of these genes (Slansky, J. E. et al., Molec. Cell. Biol. 13:1610-1618 (1993); Dalton, S., EMBO J. 11:1797-1804 (1992)).
(§2) In sharp contrast to the response of the DHFR and cdc2 promoters, CMV-SDI-1 had little or no effect on reporter activity driven by either the SV 40 early promoter (SV-CAT or the c-fos promoter (fos-CAT) (Table 16). Neither the SV40 early genes nor c-fos has been reported to be E2F-responsive.

[1] = tested on: SV40 early promoter with mutant E2F binding sites (SV/E2Fm); test: CAT reporter transcription assay, SV/E2Fm-CAT; assay type: cell-based; settings: A31 cells
Method: as §1, with “Seventy-two hours later, the cells were lysed and assayed for chloramphenicol acetyl transferase (CAT) and β-galactosidase activity. Both DHFR and cdc2 were expressed by proliferating cells, largely due to E2F-mediated transcription that is dependent on E2F binding sites in the 5′ regulatory regions of these genes (Slansky, J. E. et al., Molec. Cell. Biol. 13:1610-1618 (1993); Dalton, S., EMBO J. 11:1797-1804 (1992)).” left out
To more critically ascertain whether the inhibition of transcription by SDI-1 was E2F-dependent, three E2F binding sites were inserted into the SV40 early promoter and the effect of CMV-SDI-1 on CAT activity driven by this modified promoter (SV/E2F) was determined. […]

SV 40 early promoter = test: CAT reporter transcription assay, SV-CAT; assay type: cell-based
Method: as §1, §2

HeLa cells = test: Transient transfection of SDI-1, inhibition of DNA synthesis; assay type: cell-based, human
From the text: (§3) This provides further evidence that SDI-1 behaves like the inhibitor previously detected in senescent cells.

[2] = tested on: neonatal foreskin cell line (CSC303); test: as above; assay type: cell-based, human
From the text: as §3

WI38 immortal cell line = test: as above; assay type: cell-based, human
From the text: as §3

human cdc2 promoter = test: CAT reporter transcription assay, cdc2-CAT; assay type: cell-based
Method: as §1
The SDI-1 expression vector, CMV-SDI-1, but not the control vector, suppressed CAT activity driven by either the DHFR or cdc2 promoter (Table 16). CMV-SDI-1 was maximally inhibitory at above 2 μg of DNA under the assay conditions used. CAT activity in Table 16 is reported in counts per minute, normalized to the β-galactosidase activity. At this concentration, CMV-SDI-1 inhibited the DHFR promoter, which contains two strong E2F binding sites (Slansky, J. E. et al., Molec. Cell. Biol. 13:1610-1618 (1993)), somewhat more strongly than the cdc2 promoter, which contains a single E2F binding site (Dalton, S., EMBO J. 11:1797-1804 (1992)) (50-70% inhibition vs 40-50% inhibition). This difference in sensitivity is consistent with the finding that the DHFR promoter is somewhat more sensitive than the cdc2 promoter to stimulation by E2F1, a component of E2F (Dimri, G. P et al., J. Biol. Chem. 269:16180-16186 (1994)). At the concentrations used here, CMV-SDI-1 inhibited DHFR-CAT and cdc2-CAT expression to approximately the same extent that it inhibited DNA replication.

[3] = tested on: E2F/p107/cdk/cyclin complexes; test: Effect of recombinant SDI-1 on DNA-protein complexes at an E2F binding site in nuclear extracts; assay type: biochemical; settings: extracts from cells in late G1
From the text: E2F binding sites are occupied by protein complexes, whose composition—at least by in vitro analyses—depend on the cellular growth state and stage of the cell cycle (Chellappan, S. P. et al., Cell 65:1053-1061 (1991); Nevins, J. R., Science 258:424-429 (1992); Farnham, P. J. et al., Biochim. Biophys. Acta 1155:125-131 (1993)). To determine which if any of these complexes might be a target for SDI-1, the effect of recombinant SDI-1 protein on DNA-protein complexes that associate with an E2F binding site in vitro was determined
E2F-1 is induced a few hours prior to S phase (Shan, B. et al., Molec. Cell. Biol. 12:5620-5631 (1992); Slansky, J. E. et al., Molec. Cell. Biol. 13:1610-1618 (1993); Dimri, G. P et al., J. Biol. Chem. 269:16180-16186 (1994)) at about which time nuclear extracts from cells in mid to late G1 contain increased levels of free E2F, E2F in association with pRb, and E2F in association with p107, cdk2 and cyclin E (mid-late G1-early S). Of the complexes present in extracts from cells in late G1, only the E2F/p107/cdk/cyclin complexes were disrupted by recombinant SDI-1.

With “SDI-1: senescent cell derived inhibitor of DNA synthesis, 164 amino acid protein, SEQ ID NO:2” the “% Activity” value (c-fos promoter) was 96%, the “% Inhibition” value (c-fos promoter) was 4% and the “Normalized CAT Activity” value (c-fos promoter) was 16273 counts per minute. The “Transcription (Normalized) % Activity” value [1] was 93%, the “Transcription (Normalized) % Inhibition” value [1] was 7% and the “% Activity” value (SV 40 early promoter; SDI-1 1.0 μg) was 103%. For the same substance, the “% Inhibition” value (SV 40 early promoter; SDI-1 1.0 μg) was 0%, the “Normalized CAT Activity” value (SV 40 early promoter; SDI-1 1.0 μg) was 3743 counts per minute and the “% Activity” value (SV 40 early promoter; SDI-1 2.0 μg) was 106%. For the same substance, the “% Inhibition” value (SV 40 early promoter; SDI-1 2.0 μg) was 0%, the “Normalized CAT Activity” value (SV 40 early promoter; SDI-1 2.0 μg) was 3828 counts per minute and the “% Activity” value (SV 40 early promoter; SDI-1 4.0 μg) was 93%. For the same substance, the “% Inhibition” value (SV 40 early promoter; SDI-1 4.0 μg) was 7%, the “Normalized CAT Activity” value (SV 40 early promoter; SDI-1 4.0 μg) was 3366 counts per minute and the “inhibition (DNA synthesis)” value (HeLa cells) was < 20%. For the same substance, the “inhibition (DNA synthesis)” value [2] was 40-50%, the “inhibition (DNA synthesis)” value (WI38 immortal cell line) was 40-50% and the “Transcription (Normalized) % Activity” value (human cdc2 promoter; A31 cells (Table 17)) was 52%. For the same substance, the “Transcription (Normalized) % Inhibition” value (human cdc2 promoter; A31 cells (Table 17)) was 48%, the “% Activity” value (human cdc2 promoter; SDI-1 1.0 μg) was 50% and the “% Inhibition” value (human cdc2 promoter; SDI-1 1.0 μg) was 50%. The “Normalized CAT Activity” value (human cdc2 promoter; SDI-1 1.0 μg) was 1664 counts per minute, the “% Activity” value (human cdc2 promoter; SDI-1 2.0 μg) was 60% and the “% Inhibition” value (human cdc2 promoter; SDI-1 2.0 μg) was 40%. The “Normalized CAT Activity” value (human cdc2 promoter; SDI-1 2.0 μg) was 2000 counts per minute, the “% Activity” value (human cdc2 promoter; SDI-1 4.0 μg) was 61% and the “% Inhibition” value (human cdc2 promoter; SDI-1 4.0 μg) was 39%. For the same substance, the “Normalized CAT Activity” value (human cdc2 promoter; SDI-1 4.0 μg) was 2008 counts per minute and the “effect on E2F/p107/cdk/cyclin complexes” value [3] was “disrupted”.
